Legend:
[1] = pH change behavior of citric acid-loaded liposomes added to aqueous sodium hydroxide; format: physicochemical; settings: upon addition to 4 mL of 300 μM aqueous sodium hydroxide (pH 10.5)
Procedure: Each lipid mixture (20 mg) was hydrated in 20 mM citric acid (pH 2.2), and the dispersion was subjected to extrusion (final pore size: 0.22 μm) to prepare liposomes having a particle size of 200 to 300 nm. When required, pH change behavior was measured with a pH meter immediately after addition of the liposome dispersion ([lipid]=55 mg/mL, 10 μL) or citric acid (20 mM, 10 μL) to 4 mL of 300 μM aqueous sodium hydroxide (pH 10.5).

[2] = Release behavior of citric acid from liposomes in a weakly basic environment (pH meter); format: physicochemical; settings: after pH of the mixture changed to 7.5 to 8.5 with sodium hydroxide
Procedure: The release behavior of citric acid from liposomes was studied in a weakly basic environment. First, to an aqueous liquid of citric acid having liposomes dispersed therein ([lipid]=250 μM, 4 mL) or an aqueous solution of citric acid (30 mM, pH 2.2, 4 mL), 2M aqueous sodium hydroxide (170 μL) was added to adjust the pH of the mixture to 6.5. Then, 300 mM aqueous sodium hydroxide (60 μL) was added to change the pH of the mixture to 7.5 to 8.5. The subsequent pH change behavior was monitored over time with a pH meter.

O=C(O)CC(O)(CC(=O)O)C(=O)O [citric acid]
pH reached (sudden decrease) [1]: 7.0
nearly constant pH reached [2]: ~7

— patent US8871252B2, “pH-responsive liposome” (Nanotheta Co, Ltd., priority 2009, dated 2014)
